Measurements from patent US20210198277A1, “AMINE-SUBSTITUTED ARYL OR HETEROARYL COMPOUNDS” (Epizyme, Inc., priority 2016, published 2021).
Where two headings read alike, the source gives them in different places.

Tests used:
[1] = target: T1, human EHMT2 913-1193 (Homo sapiens, UniProt Q96KQ7); assay: EHMT2 enzyme assay on histone peptide substrate (EHMT2 PEP); format: biochemical; details: read-out: EHMT2 PEP (IC50 μM)
T1 construct: recombinant purified human EHMT2 913-1193, Viva; purchased Viva
T1 sequence (Q96KQ7 913-1193): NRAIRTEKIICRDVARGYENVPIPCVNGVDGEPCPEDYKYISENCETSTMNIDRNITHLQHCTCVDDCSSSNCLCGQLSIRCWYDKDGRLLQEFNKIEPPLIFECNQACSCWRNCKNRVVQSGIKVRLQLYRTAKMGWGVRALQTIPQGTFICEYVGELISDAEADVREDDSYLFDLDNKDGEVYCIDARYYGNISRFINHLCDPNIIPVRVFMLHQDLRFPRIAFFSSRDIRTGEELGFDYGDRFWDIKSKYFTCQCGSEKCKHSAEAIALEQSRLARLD
Summary of the method: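 Radiometric methyltransferase assay: 0.031 nM EHMT2 913-1193 preincubated 30 min with compound (10-point 3-fold series, top final 50 μM, 2% DMSO) in 20 mM Bicine pH 7.5, 1 mM TCEP. Biotinylated histone peptide methylated with ^3H-SAM for 60 min at room temperature, quenched with unlabeled SAM, captured on streptavidin Flashplates and counted.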

[2] = target: T2, EHMT1 (Homo sapiens, UniProt Q9H9B1); assay: EHMT1 enzyme assay on peptide substrate (EHMT1 PEP); format: biochemical; details: read-out: EHMT1 PEP (IC50 μM)
T2 sequence (Q9H9B1 1-1298): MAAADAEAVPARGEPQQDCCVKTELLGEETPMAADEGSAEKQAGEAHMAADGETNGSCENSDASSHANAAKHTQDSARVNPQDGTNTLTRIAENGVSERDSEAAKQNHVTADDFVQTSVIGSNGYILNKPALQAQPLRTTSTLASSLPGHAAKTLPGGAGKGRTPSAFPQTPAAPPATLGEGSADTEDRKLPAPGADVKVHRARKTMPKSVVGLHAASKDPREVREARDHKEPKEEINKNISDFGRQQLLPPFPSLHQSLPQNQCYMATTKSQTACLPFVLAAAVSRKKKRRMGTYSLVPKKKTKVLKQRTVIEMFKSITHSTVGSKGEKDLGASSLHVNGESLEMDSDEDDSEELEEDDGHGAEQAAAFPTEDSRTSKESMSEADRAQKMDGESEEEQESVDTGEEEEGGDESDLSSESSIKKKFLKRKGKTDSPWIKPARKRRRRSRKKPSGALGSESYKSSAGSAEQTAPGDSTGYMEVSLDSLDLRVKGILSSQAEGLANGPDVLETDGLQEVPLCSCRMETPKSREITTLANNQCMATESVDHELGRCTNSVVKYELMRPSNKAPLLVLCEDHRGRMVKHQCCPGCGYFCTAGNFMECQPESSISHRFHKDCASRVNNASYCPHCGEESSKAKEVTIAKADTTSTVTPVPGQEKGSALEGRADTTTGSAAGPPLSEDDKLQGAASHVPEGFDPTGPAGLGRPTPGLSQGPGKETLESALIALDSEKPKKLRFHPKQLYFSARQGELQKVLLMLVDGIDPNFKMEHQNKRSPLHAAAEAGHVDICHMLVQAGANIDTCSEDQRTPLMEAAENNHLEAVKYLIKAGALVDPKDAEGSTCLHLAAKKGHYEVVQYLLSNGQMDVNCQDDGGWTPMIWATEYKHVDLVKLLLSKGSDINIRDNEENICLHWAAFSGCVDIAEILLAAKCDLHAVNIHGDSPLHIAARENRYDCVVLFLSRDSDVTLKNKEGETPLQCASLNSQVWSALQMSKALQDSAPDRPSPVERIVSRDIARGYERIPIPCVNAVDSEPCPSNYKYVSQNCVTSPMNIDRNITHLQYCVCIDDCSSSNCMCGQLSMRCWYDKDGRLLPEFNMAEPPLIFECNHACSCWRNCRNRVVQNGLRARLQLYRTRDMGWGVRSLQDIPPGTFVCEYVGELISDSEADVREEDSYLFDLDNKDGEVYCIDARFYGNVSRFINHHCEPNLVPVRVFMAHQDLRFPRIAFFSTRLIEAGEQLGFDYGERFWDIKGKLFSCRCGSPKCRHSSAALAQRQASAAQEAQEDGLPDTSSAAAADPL

| IC50 ([1]; Table III) | IC50 ([2]; Table III) | IC50 ([1]; Table II) | IC50 ([2]; Table II) | Structure (SMILES) |
| --- | --- | --- | --- | --- |
| 1 to 10 µM | 1 to 10 µM | – | – | CNc1ccnc(Nc2ccc(OC)c(OC[C@H](O)CN3CCCC3)c2)n1 (single isomer, unassigned) [Compound 376] |
| 1 to 10 µM | > 10 µM | – | – | CNc1ccnc(Nc2ccc(OC)c(OC[C@@H](O)CN3CCCC3)c2)n1 (single isomer, unassigned) [Compound 377] |
| 1 to 10 µM | 0.1 to 1 µM | – | – | CNc1ccnc(Nc2ccc(OC)c(OCC3CCN(C)C3)c2)n1 (single isomer, unassigned) [Compound 415] |
| < 0.1 µM | < 0.1 µM | – | – | CNc1ccnc(Nc2ccc(OC)c(OCC3CCN(C)C3)c2)n1 (single isomer, unassigned) [Compound 416] |
| – | – | < 0.1 µM | < 0.1 µM | CNc1ccnc(Nc2ccc(OC)c(OCCCN3CCCC3)c2)n1 [Compound 1, N^2-(4-methoxy-3-(3-(pyrrolidin-1-yl)propoxy)phenyl)-N^4-methylpyrimidine-2,4-diamine] |
| – | – | < 0.1 µM | < 0.1 µM | COc1ccc(Nc2nccc(NCC3CCOCC3)n2)cc1OCCCN1CCCC1 [Compound 3, N^2-(4-methoxy-3-(3-(pyrrolidin-1-yl)propoxy)phenyl)-N^4-((tetrahydro-2H-pyran-4-yl)methyl)pyrimidine-2,4-diamine] |
| – | – | 0.1 to 1 µM | 0.1 to 1 µM | COc1ccc(Nc2nccc(NC3CCOCC3)n2)cc1OCCCN1CCCC1 [Compound 5, N^2-(4-methoxy-3-(3-(pyrrolidin-1-yl)propoxy)phenyl)-N^4-(tetrahydro-2H-pyran-4-yl)pyrimidine-2,4-diamine] |
| – | – | 0.1 to 1 µM | 0.1 to 1 µM | COc1ccc(Nc2nccc(NCC(=O)N3CCOCC3)n2)cc1OCCCN1CCCC1 [Compound 51] |
| > 10 µM | > 10 µM | – | – | CNc1cc(OC)nc(Nc2ccc(OC)c(OCCCN3CCCC3)c2)n1 [Compound 261, 6-methoxy-N^2-(4-methoxy-3-(3-(pyrrolidin-1-yl)propoxy)phenyl)-N^4-methylpyrimidine-2,4-diamine] |
| < 0.1 µM | < 0.1 µM | – | – | CNc1nccc(Nc2ccc(OC)c(OCCCN3CCCC3)c2)n1 [Compound 355] |
| > 10 µM | > 10 µM | – | – | CNc1nc(Nc2ccc(OC)c(OCCCN3CCCC3)c2)ncc1C#N [Compound 357] |
| 1 to 10 µM | 1 to 10 µM | – | – | CNc1ccnc(Nc2ccc(OC)c(OCCN3CCOCC3)c2)n1 [Compound 361] |
| < 0.1 µM | < 0.1 µM | – | – | CCc1cc(NC)nc(Nc2ccc(OC)c(OCCCN3CCCC3)c2)n1 [Compound 364] |
| > 10 µM | > 10 µM | – | – | CNc1ccnc(Nc2ccc(F)c(OCCCN3CCCC3)c2)n1 [Compound 368] |
| 0.1 to 1 µM | 0.1 to 1 µM | – | – | COc1ccc(Nc2nccc(N)n2)cc1OCCCN1CCCC1 [Compound 369] |

The remaining lines, values behind:

| Structure (SMILES) | IC50 ([1]; Table III) | IC50 ([2]; Table III) | IC50 ([1]; Table II) | IC50 ([2]; Table II) |
| --- | --- | --- | --- | --- |
| CNc1cc(C)nc(Nc2ccc(OC)c(OCC3CCN(C)C3)c2)n1 (single isomer, unassigned) [Compound 417] | 0.1 to 1 µM | 0.1 to 1 µM | – | – |
| CNc1cc(C)nc(Nc2ccc(OC)c(OCC3CCN(C)C3)c2)n1 (single isomer, unassigned) [Compound 418] | < 0.1 µM | < 0.1 µM | – | – |
| COc1ccc(Nc2nccc(NCC3CCN(CC(F)F)CC3)n2)cc1OCCCN1CCCC1 [Compound 2, N^4-((1-(2,2-difluoroethyl)piperidin-4-yl)methyl)-N^2-(4-methoxy-3-(3-(pyrrolidin-1-yl)propoxy)phenyl)pyrimidine-2,4-diamine] | – | – | < 0.1 µM | < 0.1 µM |
| COc1ccc(Nc2nccc(NCC3CCN(CC(F)(F)F)CC3)n2)cc1OCCCN1CCCC1 [Compound 4, N^2-(4-methoxy-3-(3-(pyrrolidin-1-yl)propoxy)phenyl)-N^4-((1-(2,2,2-trifluoroethyl)piperidin-4-yl)methyl)pyrimidine-2,4-diamine] | – | – | < 0.1 µM | 0.1 to 1 µM |
| COc1ccc(Nc2nccc(NCC(=O)N(C)c3ccccc3)n2)cc1OCCCN1CCCC1 [Compound 52] | – | – | 1 to 10 µM | 1 to 10 µM |
| COc1ccc(Nc2nccc(N3Cc4cn[nH]c4C3)n2)cc1OCCCN1CCCC1 [Compound 53] | – | – | 1 to 10 µM | 1 to 10 µM |
| COc1ccc(Nc2nccc(NC3CCN(C(C)=O)CC3)n2)cc1OCCCN1CCCC1 [Compound 54] | – | – | 0.1 to 1 µM | 0.1 to 1 µM |
| COc1ccc(Nc2ncc(C)c(NCC3CCN(C(C)=O)CC3)n2)cc1OCCCN1CCCC1 [Compound 55] | – | – | 0.1 to 1 µM | 0.1 to 1 µM |
| COc1ccc(Nc2nccc(N(C)Cc3ccncc3)n2)cc1OCCCN1CCCC1 [Compound 56] | – | – | 1 to 10 µM | 1 to 10 µM |
| COc1ccc(Nc2nccc(NCC3CCN(C(C)=O)CC3)n2)cc1COCCN1CC(F)C1 [Compound 57] | – | – | 1 to 10 µM | 1 to 10 µM |
| c1cc(Nc2nccc(NCC3CCNCC3)n2)cc(OCCCN2CCCC2)c1 [Compound 88] | – | – | 0.1 to 1 µM | 0.1 to 1 µM |
| COc1ccc(Nc2nccc(NCC3CCNCC3)n2)cc1OCCCN1CCCC1 [Compound 90] | – | – | < 0.1 µM | < 0.1 µM |
| CNc1ccnc(Nc2ccc3c(c2)C(=O)N(CCN2CCCC2)CC3)n1 [Compound 264, 7-((4-(methylamino)pyrimidin-2-yl)amino)-2-(2-(pyrrolidin-1-yl)ethyl)-3,4-dihydroisoquinolin-1(2H)-one] | > 10 µM | > 10 µM | – | – |
| COc1ccc(Nc2cccc3[nH]ccc23)cc1OCCCN1CCCC1 [Compound 265, N-(4-methoxy-3-(3-(pyrrolidin-1-yl)propoxy)phenyl)-1H-indol-4-amine] | > 10 µM | > 10 µM | – | – |
| COc1ccc(Nc2nccc3[nH]ccc23)cc1OCCCN1CCCC1 [Compound 266, N-(4-methoxy-3-(3-(pyrrolidin-1-yl)propoxy)phenyl)-1H-pyrrolo[3,2-c]pyridin-4-amine] | 1 to 10 µM | 1 to 10 µM | – | – |
| CNc1cc(C)nc(Nc2ccc(F)c(OCCCN3CCCC3)c2)n1 [Compound 356] | > 10 µM | > 10 µM | – | – |
| CNc1nc(Nc2ccc(OC)c(OCCCN3CCCC3)c2)ncc1C(F)(F)F [Compound 358] | > 10 µM | > 10 µM | – | – |
| CNc1ncc(C(F)(F)F)c(Nc2ccc(OC)c(OCCCN3CCCC3)c2)n1 [Compound 359] | > 10 µM | > 10 µM | – | – |
| CNc1nc(Nc2ccc(OC)c(OCCCN3CCCC3)c2)nc(C)c1F [Compound 360] | 0.1 to 1 µM | 0.1 to 1 µM | – | – |
| CNc1cc(C(F)(F)F)nc(Nc2ccc(OC)c(OCCCN3CCCC3)c2)n1 [Compound 362] | > 10 µM | > 10 µM | – | – |
| CNc1ccnc(Nc2ccc3c(c2)N(C(=O)CCN(C)C)CC3)n1 [Compound 363] | > 10 µM | > 10 µM | – | – |
| COc1ccc(Nc2nccc(CNC3CCOCC3)n2)cc1OCCCNc1ccccc1 [Compound 365] | > 10 µM | > 10 µM | – | – |
| COc1ccc(Nc2cnnc(NCC3CCN(C(C)=O)CC3)c2)cc1OCCCN1CCCC1 [Compound 366] | 1 to 10 µM | 1 to 10 µM | – | – |
| COc1ccc(Nc2nccc(NCC3CCOCC3)n2)cc1OC1CC2(C1)CN(C)C2 [Compound 367] | > 10 µM | > 10 µM | – | – |
| CNc1cnnc(Nc2ccc(OC)c(OCCCN3CCCC3)c2)c1 [Compound 370] | 0.1 to 1 µM | 0.1 to 1 µM | – | – |
| CNc1cncc(Nc2ccc(OC)c(OCCCN3CCCC3)c2)n1 [Compound 371] | 1 to 10 µM | 1 to 10 µM | – | – |
